In article PMC7321408, “One-Pot Multicomponent Synthesis and Bioevaluation of Tetrahydroquinoline Derivatives as Potential Antioxidants, α-Amylase Enzyme Inhibitors, Anti-Cancerous and Anti-Inflammatory Agents” (Molecules, 2020):
≈ marks a conversion by molar mass, not a printed value. Like-named read-outs stand apart in the source and are kept apart here.

Tests used:
[1] = tested on: carrageenan-induced paw edema; test: Carrageenan-induced paw edema (in vivo anti-inflammatory activity); set-up: species or system BALB/C albino mice; unit not given beside the values; conditions: 10 mg/kg, mice, n = 5
Procedure: At 7–8 weeks old, male BALB/C albino mice (29–35 g), were purchased from The National Institute of Health (NIH), Islamabad, Pakistan. Five animals were housed per group and placed in a controlled temperature and humidity-controlled room (22 °C and 66 ± 5%, respectively) in a 12 h light–dark cycle and provided with water and food ad libitum. Ethical approval was taken from the bio-ethical committee of Quaid-I-Azam University (Approval No. BEC-FBS-QAU2018-119) and all protocols were conducted following the Ethical Guide to the Code of Practice for the Housing and Care of Animals Act 1986 (ARRIVE (Animal Research: Reporting In Vivo Experiments) guidelines). The anti-inflammatory activity of the synthesized compounds was evaluated by using the carrageenan-induced rat paw edema assay. To determine the dose response of tetrahydroquinoline derivatives, animals were first given a dose of 0.1, 1 and 10 mg/kg against 100 µL carrageenan (1% solution in normal saline)/paw. Treatment was given 60 min before carrageenan injection. Readings were taken at 4 h post carrageenan injection. The in vivo anti-inflammatory activity was performed following the procedure described by Koksal, et al. in 2017. Paw edema was induced by injecting 100 µL of 1% sterile carrageenan solution into the right hind paw of mice. Synthesized compounds (10 mg/kg), vehicle (saline with 2% DMSO) and drug (acetylsalicylic acid, ASA 10 mg/kg) were administered to the mice orally by gastric intubation 60 min before injecting carrageenan into the right hind paw. The decrease in edema was measured by vernier calipers every 2 h.

[2] = DPPH free radical scavenging assay; conditions: mean ± SEM, n = 3; for IC50 (DPPH radical scavenging): concentration to scavenge 50% of the DPPH radicals
Procedure: The % free radical scavenging activity (%FRSA) of the synthetic compounds was evaluated by the discoloration of an unstable DPPH reagent to the stable yellow-colored 2,2-diphenyl-1-picrylhydrazine molecule by accepting one electron from a donor antioxidant; the mechanism is shown in Scheme 2.
The % FRSA (free radical scavenging activity) of the synthetic compounds was determined by using the method of Tai et al. with slight modifications. The antioxidant potential was determined by detecting the capacity of the synthetic compounds to quench the DPPH free radicals. The synthetic compounds were taken in a 96-well plate at three-fold concentrations of 200 µg/mL, 66.6 µg/mL, 22.2 µg/mL and 7.4 µg/mL. DPPH free radicals were added to entire wells to make up the volume up to 200 µL. DMSO and ascorbic acid were taken as negative and positive controls, respectively. The absorbance was taken at 630nm using a microplate reader (ELx800 BioTek). The percentage of scavenging activity was calculated by the given formula:% scavenging activity = (1 − Abs/Abc) × 100
Abs = sample’s absorbance; Abc = control’s absorbance.

Hep-2C cells = test: MTT assay against Hep-2C cells; assay type: cell-based, Human; conditions: read-out: IC50 (Mean ± SEM) Hep-2C Cells
Procedure: Hep-2C cell line experiments were performed in the Immunology Lab of the National Institute of Health (NIH), Islamabad, Pakistan. Human cervix carcinoma cells Hep-2C (ATCC HB-8065) were cultured in Dulbecco’s modified Eagle’s medium (DMEM), comprising 10% fetal calf serum (10% FCS) and supplemented with 2 mM L-glutamine, 100 U/mL penicillin, 100 µg/mL streptomycin and 1 mM Na pyruvate, at 37 °C in a humidified 5% CO2 incubator.
The tetrazolium dye 3-(4, 5-dimethyl thiazolyl-2)-2, 5-diphenyltetrazolium bromide (MTT) was used to assess the cytotoxic potential of the test compounds. In living cells, MTT is reduced into its insoluble purple product formazan, which is measured spectrophotometrically.
Hep-2C cells, in a density of 1 × 10^6 (> 90% cell viability), were cultured in a 96-well plate and treated with different concentrations of the test compounds for 24, 48 and 72 h. Ten microliters of MTT (1 mg per mL) were added per well followed by incubation for 4 h. Insoluble formazan crystals were dissolved by adding 100 µL of DMSO. Cells were then incubated for another 2 h. Absorbance was measured at 570 nm by a microplate reader. Untreated Hep-2C cells were taken as controls and DMSO as a negative. % cell viability = (abssample − absblank)/(abscontrol − absblank) × 100

[3] = MTT cytotoxicity against raw macrophages; assay type: cell-based, albino rats; conditions: albino, rat; for viability at 24 h, 1 µM / viability at 24 h, 10 µM / viability at 24 h, 50 µM / viability at 24 h, 100 µM: peritoneal macrophages (raw macrophages), raw macrophages, MTT, read-out: % Cell Viability; for IC50 at 24 h: primary peritoneal macrophages, mean ± SEM, n = 3
Procedure: The % cell viability of the synthetic library was evaluated in vitro by measuring the mitochondrial dehydrogenase activity (MTT test) on raw macrophages.
The cytotoxic potential was assessed by using an MTT 3-(4,5-dimethyl thiazole-2-yl)-2,5- diphenyl tetrazolium bromide assay. Briefly, macrophages were extracted from the peritoneal cavity of albino rats and plated at a density of 1 × 10^6 per well in a 96-well plate and incubated in a 5% CO2 incubator at 37 °C for 24 h. The cells were treated with various concentrations of the test compounds (100 µM, 50 µM, 10 µM and 1 µM) or vehicle alone. The test compounds were first dissolved in DMSO to make a 100 mM stock solution and then further dilutions were made from this stock solution. After 24 h of incubation, 20 µL of MTT (1 mg/mL in normal saline) was added into each well and incubated under the same conditions for 2 h. Mitochondrial succinate dehydrogenase converted MTT in live cells into purple formazan crystals. The formazan crystals were then solubilized in 100 µL DMSO, and the absorbance was measured at 570 nm. The % cell viability was calculated by the following formula; % cell viability = (abssample − absblank)/(abscontrol − absblank) × 100

brine shrimp nauplii = test: Brine shrimp lethality bioassay; assay type: in vivo; conditions: 24 h, n = 3
Procedure: Brine shrimp eggs were hatched in a shallow rectangular plastic dish and filled with artificial seawater, which was prepared with a commercial salt mixture. In a 96-well plate, 150 µL of artificial seawater was added and 10 nauplii were added into this. Test compounds (400, 200, 100 and 50 µg/mL) were added into each well and the final volume was made up by adding the artificial seawater. The well plate was left uncovered under a lamp. The number of surviving shrimps were counted and recorded after 24 h. The test was repeated in triplicate. […] The percentage mortality (%M) was also calculated by dividing the number of dead nauplii by the total number and then multiplied by 100.

[4] = tested on: NO generated by LPS-induced macrophages; test: Nitric oxide assay (Griess) in LPS-induced macrophages; assay type: cell-based, murine; conditions: Mus musculus, Macrophage, 18 h, LPS 1 µg/mL, read-out: % NO Production (Mean ± SEM)
Procedure: A Griess reagent, a spectrophotometric determination of nitrite level, was carried out to measure the nitrite level in the conditioned medium of macrophages treated with lipopolysaccharide (LPS). Sodium nitrite (NaNO2) was used as a standard compound for the standard curve (Figure 8). The NO concentrations were obtained using the standard curve equation: y = 0.0083x + 0.0017, R^2 = 0.9999, where y is the absorbance at 540 nm and x is the NO concentration in µM. The inhibitory activity of the tested compounds towards NO generated by LPS-induced macrophages was obtained from the calculated value of x.
The anti-inflammatory effect of the synthesized compounds in murine macrophages was evaluated by using the Griess reaction method, described previously. In brief, 1 × 10^6 were plated in a 96-well plate and incubated in a 5% CO2 incubator at 37 °C for 24 h, pre-treated with different concentrations (100 µM, 50 µM, 10 µM and 1 µM) of synthetic compounds for another 2 h and challenged with LPS (1 µg/mL) for an additional 18 h. Equal volumes of Griess reagent (1% sulphanilamide in 50% phosphoric acid and 0.1% naphthyl ethylenediamine dihydrochloride in distilled water and vortexed) and culture medium were mixed and the absorbance was taken at 540 nm. Lipopolysaccharide (LPS) was taken as a blank and piroxicam was taken as a positive control. A t-test was applied to determine the significance of the results.

| IC50 (DPPH radical scavenging) [2] [µg/mL] | SMILES | % DPPH Scavenging Activity ([2]; 7.4 µg/mL) [%] | % DPPH Scavenging Activity ([2]; 22.22 µg/mL) [%] | % DPPH Scavenging Activity ([2]; 66.66 µg/mL) [%] | % DPPH Scavenging Activity ([2]; 200 µg/mL) [%] | viability at 24 h, 1 µM [3] [%] | viability at 24 h, 10 µM [3] [%] | viability at 24 h, 50 µM [3] [%] | viability at 24 h, 100 µM [3] [%] | IC50 at 24 h [3] [µM] | LD50 ± SEM (brine shrimp lethality) (brine shrimp nauplii) [µg/mL] | activity at 1 µM [4] [%] | activity at 10 µM [4] [%] | activity at 50 µM [4] [%] | activity at 100 µM [4] [%] | also measured |
| --- | --- | --- | --- | --- | --- | --- | --- | --- | --- | --- | --- | --- | --- | --- | --- | --- |
| – | CC(=O)Oc1ccccc1C(=O)O [Acetyl salicylic acid, reference compound] | – | – | – | – | – | – | – | – | – | – | – | – | – | – | Paw thickness ([1]; 0 h after carrageenan injection): 2.14 ± 0.08; Paw thickness ([1]; 2 h after carrageenan injection): 2.26 ± 0.05; Paw thickness ([1]; 4 h after carrageenan injection): 2.32 ± 0.04; Paw thickness ([1]; 6 h after carrageenan injection): 2.39 ± 0.02 |
| 41.38 ± 0.34 (≈ 235 µM) | O=C1O[C@H]([C@@H](O)CO)C(O)=C1O [Ascorbic Acid, reference compound] | 31.35 ± 0.23 | 52.12 ± 0.31 | 76.63 ± 0.19 | 89.01 ± 0.18 | – | – | – | – | – | – | – | – | – | – | – |
| – | N.N.[Cl][Pt][Cl] [Cisplatin, reference compound] | – | – | – | – | – | – | – | – | – | – | – | – | – | – | IC50 (Hep-2C cells; 24 h): 19.1 ± 1.06 µM; IC50 (Hep-2C cells; 48 h): 17.5 ± 1.07 µM; IC50 (Hep-2C cells; 72 h, listed as cisplatin): 14.6 ± 1.01 µM; IC50 (Hep-2C cells; 72 h): 14.6 ± 1.01 µM |
| – | COc1cccc2c1C(=O)c1c(O)c3c(c(O)c1C2=O)C[C@@](O)(C(=O)CO)C[C@@H]3O[C@H]1C[C@H](N)[C@H](O)[C@H](C)O1 [Doxorubicin, reference compound] | – | – | – | – | 51 ± 1.34 | 40 ± 0.87 | 33 ± 1.01 | 17 ± 0.83 | 17.1 ± 0.37 | 124 ± 1.54 | – | – | – | – | – |
| – | CN1C(C(=O)Nc2ccccn2)=C(O)c2ccccc2S1(=O)=O [Piroxicam, reference compound] | – | – | – | – | – | – | – | – | – | – | 25.4 ± 0.45 | 20.7 ± 0.24 | 16.5 ± 0.41 | 13.4 ± 0.54 | – |
| 41.64 ± 1.01 (≈ 138 µM) | O=c1c(O)c(-c2ccc(O)c(O)c2)oc2cc(O)cc(O)c12 [Quercetin, reference compound] | 42.34 ± 0.36 | 58.31 ± 0.28 | 69.81 ± 0.17 | 81.43 ± 0.21 | – | – | – | – | – | – | – | – | – | – | – |
| 35.89 ± 0.33 (≈ 155 µM) | c1ccc2c(c1)CCCN2CN1CCNCC1 [SF6, 1-(Piperazine-1-ylmethyl)-1,2,3,4-tetrahydroquinoline] | 8.81 ± 0.21 | 37.75 ± 0.31 | 50.32 ± 0.18 | 66.61 ± 0.13 | 91 ± 0.99 | 87 ± 0.82 | 65 ± 0.76 | 60 ± 1.21 | 23.37 ± 0.17 | 121.2 ± 1.09 | 77.3 ± 0.62 | 72.33 ± 0.59 | 61.11 ± 0.54 | 52.44 ± 0.49 | – |
| 53.63 ± 0.13 (≈ 246 µM) | CCN(CC)CN1CCCc2ccccc21 [SF11, N-((3,4-dihydroquinolin-1(2H)-yl)methyl)-N-ethylethanamine] | 7.76 ± 0.18 | 15.54 ± 0.09 | 30.9 ± 0.12 | 43.93 ± 0.28 | 95 ± 0.91 | 82 ± 0.84 | 62 ± 1.2 | 41 ± 0.83 | 26.4 ± 0.31 | 200 ± 2.11 | 43 ± 0.66 | 39.8 ± 0.61 | 33.7 ± 0.53 | 25.7 ± 0.44 | – |
